Results: patent US7019000B1, “Method of treating a disease condition caused or exacerbated by an HPV” (Institute of Molecular & Cell Biology, priority 1998, dated 2006)

Columns and labels:
[1] = target: T1, binding of E6 with E6AP and E6BP (Human papillomavirus type 16, UniProt P03126); set-up: species or system HPV-16
T1 construct: The full length HPV16 E6 gene was amplified via polymerase chain reaction and cloned in the vector pGeX4T2; made in house; host or cells: E. coli strain AB1899
Source text: BIACORE allows real time analysis of bimolecular interactions without the need for isotopic or enzymatic labelling. BIACORE technology is based on the optical surface plasmon resonance (SPR), a technique that allows for detecting small changes in the refractive index on the surface of a thin gold film coated with a dextran matrix. Typically, one of the binding partners (termed the ligand) is covalently linked to the dextran matrix, while the other partner (termed the analyte) is introduced in a flow passing over the surface. The change in refractive index resulting from the interaction of the molecules is expressed in resonance units (RU): a SPR response of 1000 RU corresponds to a change of the surface concentration of the analyte of 1 ng protein/mm^2. GST-E6AP and GST-E6BP were used as ligands and GSTE6 was used as the analyte. […] Further controls included using the dextran matrix alone or GST as the ligand.
Binding of GST-E6 to GST-E6BP, GST-E6AP and GST was monitored by surface plasmon resonance (SPR) on a BIACORE 2000 machine (Biacore AB, Uppsala, Sweden). […] Typically 6000–10000 RU of GST, E6BP and E6AP were immobilized on three difference flowcells. Aliquots of purified HPV-16 GST-E6 (7 μM in 10 mM GSH, 50 mM Tris/PBS buffer, pH 8.2) were incubated with either 400 μM compound, or 5 mM EDTA, or 0.6% (170 mM) H2O2 for 2 hrs at room temperature. Then 10 μl of sample was injected at 1 μl/min over the three immobilized ligands using the sequential flow mode. The interactions between GST-E6 and ligands were monitored by the change of resonance signal in arbitrary units (RU).

[2] = target: T2, E6 binding to E6BP and E6AP (Human papillomavirus type 16, UniProt P03126); assay: GST-pulldown experiment, in vitro translated E6 binding to GST-E6BP/GST-E6AP; set-up: species or system HPV-16; conditions: 35S-Cys in vitro translated E6
T2 construct: The open reading frame of HPV-16 E6, cloned into the Hind III and PstI site of the pSP64 plasmid; made in house; host or cells: TNT-SP6 coupled reticulocyte lysate (Promega) for E6; E. coli AB1899 for the GST fusions
Experimental: The open reading frame of HPV-16 E6, cloned into the Hind III and PstI site of the pSP64 plasmid (33), was in vitro translated with ^35S-cysteine by using the TNT-SP6 Coupled Reticulocyte Lysate System as recommend by the manufacturer (Promega). All washing and binding reactions were performed with the E6BP-binding buffer described (5) but without DTT (100 mM NaCl, 100 mM Tris-HCl pH8.0, 1% NP40, 0.1% nonfat dry milk and 1 mM PMSF. 40 μl of in vitro translated E6 plus 360 μl of E6BP-binding buffer were incubated for 2 hrs at room temperature with test compounds at difference concentrations from 0–1 mM (dissolved in DMSO at 1%), 5 mM EDTA, and H2O2 at 0.3% (85 mM). The sample was then passed over columns captaining glutathione-sepharose beads with bound GST, GST-E6, GST-E6BP or GST-E6AP proteins. The beads were heated to 95° C. in 50 μl Laemmli sample buffer (BIO-RAD) with 2.5% 2-mercaptoethanol, subjected to electrophoresis on a 15% polyacrylamide gel, fixed, stained, and autoradiographed. Interference with complex formation identified reactive compounds. Desitometric quantification was performed with a BIO-RAD/GS700 imaging desitometer.

[3] = test system: PARP cleavage in HaCat cells; assay: Western blot detection of PARP cleavage, HaCat; assay type: cell-based, human; conditions: 100 μM, one day; HPV-negative HaCat cells (mutant p53)
Experimental: 10^6 cells were plated on 10 cm petri-dishes with 10 ml medium and after attachment overnight, treated with 100 μM C16 or 0.5% DMSO for one day. At the time of cell harvest most C16-treated cells were still attached to the plate. Cells were harvested using a rubber policeman and lysed in 10 mM Hepes buffer, pH 7.2, 150 mM NaCl, 0.2% Nonidet-P40 (NP40) and 1 mM PMSF, followed by centrifugation. 20 μg of protein was loaded onto a 12% SDS-polyacrylamide gel, transferred to a nitrocellulose membrane and the membrane blocked with 5% nonfat dry milk in 20 mM Tris-Cl, pH 7.6, 150 mM NaCl, 0.05% Tween-20 overnight at 4° C. The membrane was then probed with primary antibodies against p53 (Santa Cruz Biotechnology, Santa Cruz, Calif.), β-actin (Sigma, St. Louis, Mo.) or PARP (C210, Centre de Research du Chul, Quebec, Canada) and followed by incubation with horseradish peroxidase-conjugated secondary antibody (Pierce, Rockford, Ill.). Finally, the blot was treated with an enhanced chemiluminescent detection substrate (SuperSignal, Pierce) and autoradiographed.
Increases in P53 expression are known to be associated with programmed cell death (apoptosis) (29), therefore PARP cleavage, a hallmark of apoptosis was examined in C16 treated cells.

[4] = test system: SiHa, HeLa, 444 and HaCat cells; assay: Microscopic observation of cell viability (FIG. 4); assay type: cell-based, human; conditions: E6-dependent cells (SiHa and HeLa) vs E6-independent cells (444 and HaCat)
Experimental: FIG. 4 photographically depicts viability of SiHa, HeLa, 444 and HaCat cells when treated with C16 compound.
Cell viability and the cytotoxic specificity for a number of other compounds of Formula (I) and (II) were also determined.

T1 sequence (P03126 whole entry): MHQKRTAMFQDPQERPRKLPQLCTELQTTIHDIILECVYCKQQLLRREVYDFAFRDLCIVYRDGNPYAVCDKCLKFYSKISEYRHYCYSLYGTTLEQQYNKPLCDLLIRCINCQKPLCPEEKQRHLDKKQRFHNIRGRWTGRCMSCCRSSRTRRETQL
T2 sequence (P03126 whole entry, the tested form may be a part): as the sequence (P03126 whole entry) above

## C1CN(SSN2CCOCC2)CCO1 [Compound C16]
[1]
  inhibitory activity for E6 binding to both E6BP and E6AP (BIACORE): inhibitory activity for E6 binding to both E6BP and E6AP
[1]; 400 μM compound, 2 hrs at room temperature, GST-E6 7 μM in 10 mM GSH
  BIACORE (E6BP/E6AP): + (compound interferes in binding of E6 with E6AP and E6BP, binding is less than 50% of the corresponding E6-DMSO value.)
[2]
  inhibition of E6 binding to E6BP and E6AP (GST-pulldown, FIG. 2): inhibits E6 binding to both cellular proteins
[3]
  PARP cleavage: not
[4]
  microscopic observation of cells: differential effect
